Our source for the melting point values is a melting point compilation (Tetko et al.).

As for `Cc1cc(C2CC2)nc(Nc2ccccc2)n1`, the melting point amounted to 75.9 °C.
The result for `Oc1c(Cl)c(Cl)c(Cl)c(Cl)c1Cl` reads 191 °C.
`O=c1c(Cl)c(Cl)cnn1Cc1ccc(Cl)cc1` gave a melting point of 138 to 139 °C.
The figure for `COC(=O)c1ccc(N)c(N)c1` is 108 to 109 °C; for `CCCCCCCCCCCCCCCN` it is 37.3 °C.
The figure for `CCOC(=O)c1cc2cccc(OC)c2o1` is 85 to 90 °C; for `CN(C)C1(C#N)CCOCC1` it is 51 to 52 °C.
The result for `CCCCCCc1ccc(C(=O)Oc2ccc(C#N)cc2)cc1` reads 46 °C.
`Cc1nn(C)c(C)c1Br` registered a melting point of 35 °C.
For `CSc1nc2cc(NCc3ccc4c(c3)OCO4)ccc2[nH]1`, the melting point was in the range of 146 to 148 °C.
The result for `C=CCc1ccc(O)cc1` reads 15.8 °C; that for `O=C(C=Cc1ccc(Cl)c(Cl)c1)C=Cc1ccc(Cl)c(Cl)c1`, 175 to 177 °C.
The figure for `COC(=O)c1c(OC)ccc(OC)c1C(=O)OC` is 101 °C; for `S=C=Nc1ccc(I)cc1` it is 76 to 78 °C; for `c1ccc2c(N=Nc3cccc4ccccc34)cccc2c1` it is 190 °C.
The figure for `CC1(c2ccccc2)CC(C(=NNC(N)=S)c2cc3ccccc3o2)C1` (stereo not drawn) is 205 to 207 °C.
Molecule `O=C(O)CCC(F)(F)F` gave a melting point of 31 °C.
The result for `CC(C)Cc1ccc(CC(=O)O)cc1` reads 86 °C.
On to `CC(C)(C)OC(=O)Nc1ccsc1`, for which the melting point is 138 to 140 °C.
The figure for `CCCCCCCCCCCCCCCCCC(CC)c1ccccc1` (stereo not drawn) is 29.3 °C.
As to `O=S(=O)(c1ccccc1)n1c(CBr)cc2ccccc21`, the melting point lay in the range of 116 to 117 °C.
The result for `NC(=O)OCCCl` reads 75.5 °C; that for `CC12CCC(=O)C=C1CCC1C3CCC4(CCC(=O)O4)C3CCC12C` (stereo not drawn), 158 °C; that for `CC(C)S(=O)(=O)c1csc(C(=O)O)c1N`, 158 °C.
Molecule `NCCSS(=O)(=O)O` displayed a melting point of 191 to 194 °C.
Turning to `Brc1ccc2c(c1)Oc1cc(Br)ccc1O2`, the melting point came to 145 °C.
The result for `NC(=S)NN=C1C2CCCC1C1(O)CCCCC1C2c1ccccc1` (stereo not drawn) reads 205 °C; that for `CCCCCCCCOc1ccc(C(C)=O)cc1OCCCCCCCC`, 59 to 61 °C.
With `CC(CCC(=O)O)C1CCC2C3CCC4CC(O)CCC4(C)C3CCC12C` (stereo not drawn), the melting point was 186 °C.
The figure for `CC(C)(C(=O)O)C(CC(=O)O)c1ccccc1` (stereo not drawn) is 171 °C.
The figure for `CC12CCC(C(CC(N)=O)C1=O)C2(C)C` (stereo not drawn) is 101 °C; for `O=c1nc2ccccc2nc(C(F)(F)F)c1NNc1ccc2ccccc2c1` it is 151 °C; for `CCOC(=O)/C(=N\Nc1ccc(Cl)cc1)C(=O)C(F)(F)F` it is 75 to 76 °C.
The figure for `CN1CCCN(c2ccc(C=O)cc2)CC1` is 44 to 46 °C; for `COc1ccc(-c2ccc(S(=O)(=O)NC(Cc3ccccc3)C(=O)O)cc2)cc1` (stereo not drawn) it is 179 °C.
`BrCc1ccc2nsnc2c1` yielded a melting point of 91 °C.
The figure for `Cc1cc(Br)c2c(c1N)C(=O)c1ccccc1C2=O` is 245 to 252 °C; for `Fc1ccc(-n2cc[nH]c2=S)cc1` it is 207 to 209 °C.
The result for `COc1cc2c(cc1OC)C(c1ccc(O)cc1)N(C(C)=O)CC2` (stereo not drawn) reads 145 to 147 °C.
The result for `O=C(C=Cc1ccc(Cl)cc1)c1ccc(Cl)cc1` reads 158 °C; that for `Cc1cc(Cl)ccc1OCC(=O)O`, 120 °C; that for `CC(C)Nc1nc(Cl)nc(NC(C)C)n1`, 213 °C.
`c1ccc(Oc2nc(-c3ccccc3)nc3nc4ccccc4n23)cc1` returned a melting point of 247 °C.
The figure for `O=C(Cl)c1csc(-c2cccs2)n1` is 93 to 94 °C; for `CSC(=Nc1nnc(-c2ccccc2)s1)SC` it is 111 to 113 °C; for `Cc1cc(C(=O)CCl)c(C)n1-c1ccccc1` it is 93 to 94 °C.
The molecule `O=C(O)c1cnc(Cl)c(Br)c1` returned a melting point of 172 °C.
Molecule `N#Cc1cc(Cl)ccc1Cl` registered a melting point of 130 to 132 °C.
The figure for `O=C(O)c1cccnc1Oc1ccc(F)cc1` is 187 to 189 °C; for `Cc1cccnc1C(N)=S` it is 120 °C; for `COC(=O)c1sccc1Oc1ccc(C(F)(F)F)cc1[N+](=O)[O-]` it is 112 to 113 °C.
The figure for `CCOC(=O)c1nn(-c2ccc(C)cc2)c(C)c1C(=O)C1=NOC2C(=O)N(c3ccc(OC)cc3)C(=O)C12` (stereo not drawn) is 221 °C; for `OCC1OC(Oc2c[nH]c3ccc(Br)c(Cl)c23)C(O)C(O)C1O` (stereo not drawn) it is 249 to 251 °C.
Regarding `O=S(=O)(CCSCCO)c1ccc(Cl)cc1`, the melting point was in the range of 59 to 62 °C.
The result for `O=C(O)c1cc(Cl)ccc1F` reads 149 °C; that for `Nc1ccc(C(=O)NCCC(=O)O)cc1`, 152 °C.
The figure for `C=C/C=C/C=C` is -12 °C; for `O=C(c1ccccc1)c1coc(-c2ccc(Cl)cc2)c1S(=O)(=O)c1ccccc1` it is 96 to 97 °C; for `OCCNCCNCCO` it is 97.5 °C.
The figure for `O=C(C1=NOC2C(=O)N(c3ccc(Br)cc3)C(=O)C12)c1ccc2ccccc2c1` (stereo not drawn) is 186 °C; for `COc1ccc(Cl)nn1` it is 91 °C.
`Cc1nc2ccccc2n1CCC(=O)NN1C(=O)CSC1c1ccccc1Cl` (stereo not drawn) gave a melting point of 250 °C.
The figure for `Cc1nc(-c2cc(CO)no2)cs1` is 120 °C; for `FC(F)(F)C(F)(F)C(Cl)(Cl)Cl` it is -80 °C.
As for `Cc1cccc2c1-c1nc3ccccc3nc1-2`, the melting point is 134 to 136 °C.
The figure for `O=c1cc(CN2CCOCC2)c2cc(O)c(O)cc2o1` is 232 °C; for `CC1=NN(c2ccc(C)cc2)C(=O)C1` it is 138 °C.
The result for `Nc1cccc(C(F)(F)F)c1Cl` reads 27 °C; that for `Oc1ccnc2cc(Cl)ccc12`, 280 °C; that for `CC12CCC(C(=CC(Cc3ccccc3)C(=O)O)C1=O)C2(C)C` (stereo not drawn), 127 °C.
The figure for `COc1ccc(C2(C)CCc3oc4c(Br)cc(Br)cc4c3-c3oc(C)cc32)cc1` (stereo not drawn) is 165 °C; for `O=C(O)[C@H](O)[C@@H](O)[C@H](O)[C@H](O)CO` it is 131 °C; for `CC12CCC3C(CCC4=CC(=O)C=CC43C)C1CCC(=O)O2` (stereo not drawn) it is 218 °C.
As for `COc1cc(OC)nc(NC(=O)NS(=O)(=O)c2ncccc2C(F)(F)F)n1`, the melting point amounted to 180 °C.
Molecule `N[C@H](Cc1ccc(I)cc1)C(=O)O` registered a melting point of 251 °C.
`CCO[Si](c1ccccc1)(c1ccccc1)c1ccccc1`: the melting point was determined as 65 °C.
The figure for `COc1ccc(C(=O)O)c(C(F)(F)F)c1` is 149 °C.
The figure for `NC(=S)c1ccccc1` is 116 °C.

By melting point is commonly meant the temperature, or range, at which the solid turns liquid.
